Data from patent US20220016277A1, “MACROCYCLIC COMPLEXES OF RADIONUCLIDES AND THEIR USE IN RADIOTHERAPY OF CANCER” (Cornell University, priority 2018, published 2022).

Experiment: Organ distribution of ^225Ac complexes following intravenous injection in mice
Type: in vivo, C57BL/6 mice
Method: In Vivo Biodistribution of ^225Ac Complexes of Macropa and DOTA. All experiments were approved by the Institutional Animal Care Committee (IACC) of the University of British Columbia and were performed in accordance with the Canadian Council on Animal Care Guidelines. A total of 9 female C57BL/6 mice (6-8 weeks old, 20-25 g) were used for the biodistribution study of each radiometal complex, n=3 for each time point.
Macropa (100 μL of a 1 mg/mL solution in NH4OAc) was diluted with 387 μL of NH4OAc (1 M, pH 7), and an aliquot (203 μL) of ^225Ac(NO3)3 (˜157 kBq) was then added; the pH of this solution was adjusted to 6.5-7 by the addition of 1 M NaOH (210 μL, trace metal grade). After 5 min at ambient temperature, the reaction solution was analyzed by TLC (0.4 M pH 4 sodium citrate as the eluent), which confirmed >95% radiochemical yield. The reaction was allowed to proceed overnight, and the radiochemical yield was again confirmed to be >95% the following morning. At this time, mice were anesthetized by 2% isoflurane, and approximately 100 μL (10-15 kBq) of the [^225Ac(macropa)]^+ complex were injected into the tail vein of each mouse. After injection, mice were allowed to recover and roam freely in their cages, and were euthanized by CO2 inhalation at 15 min, 1 h, or 5 h (n=3 at each time point) post-injection. Blood was collected by cardiac puncture and placed into an appropriate test tube for scintillation counting. Tissues collected included heart, liver, kidneys, lungs, small intestine, large intestine, brain, bladder, spleen, stomach, pancreas, bone, thyroid, tail, urine, and feces. Tissues were weighed and then counted with a calibrated gamma counter (Packard, Cobra II model 5002) using three energy windows: 60-120 keV (window A), 180-260 keV (window B), and 400-480 keV (window C). Counting was performed both immediately after sacrifice and after 7 days; counts were decay corrected from the time of injection and then converted to the percentage of injected dose (% ID) per gram of tissue (% ID/g). […]
The biodistribution studies of [^225Ac(DOTA)]^− and ^225Ac(NO3)3 were carried out as described above for [^225Ac(macropa)]^+, with the following modifications. [^225Ac(DOTA)^− was prepared by adding ^225Ac(NO3)3 (338 μL, 1.1 MBq) to a solution of DOTA (100 μg, 20 mg/mL in H2O) in NH4OAc (467 μL, 0.15 M, pH 7). The pH of the solution was adjusted to 7 using NH4OAc (150 μL, 1 M, pH 7) and the solution was heated at 85° C. for 45 min. RCY >99% was confirmed by TLC as described above. [^225Ac(DOTA)]^− was diluted with saline to a final concentration of 0.05 MBq/100 μL, and 100 μL were injected into each mouse. ^225Ac(NO3)3 (˜58 μL, 0.4 MBq) was diluted and injected in the same manner as [^225Ac(DOTA)]^−. One mouse that was to be euthanized at the 5 h time point in the [^225Ac(DOTA)]^− study died shortly after injection. In the same manner, one mouse that was to be euthanized at the 1 h time point in the ^225Ac(NO3)3 study died.
The in vivo stability [^225Ac(macropa)]^+ was examined by comparing its biodistribution to those of ^225Ac(NO3)3 and [^225Ac(DOTA)]^−. C57BL/6 mice were injected via tail vein with 10-50 kBq of each radiometal complex and were sacrificed after 15 min, 1 h, or 5 h. The amount of ^225Ac retained in each organ was quantified by gamma counting and reported as the percent of injected dose per gram of tissue (% ID/g). The results of these studies are compiled in Tables 1-3. Inadequate stability of an ^225Ac complex leading to the loss of radioisotope in vivo is manifested by the accumulation of ^225Ac in the liver, spleen, and bone of mice.^[11,12,32] […] The biodistribution profile of [^225Ac(macropa)]^+ (FIG. 3B) differs markedly from that of ^225Ac(NO3)3. […] Its biodistribution profile was similar to that of [^225Ac(DOTA)]^− (FIG. 3C), which has been previously shown to retain ^225Ac^3+ in vivo.^[7]

[1] = 15 min post i.v. injection, energy window A (60-120 keV)
[2] = 15 min post i.v. injection, energy window B (180-260 keV)
[3] = 15 min post i.v. injection, energy window C (400-480 keV)
[4] = 1 h post i.v. injection, energy window A (60-120 keV)
[5] = 1 h post i.v. injection, energy window B (180-260 keV)
[6] = 1 h post i.v. injection, energy window C (400-480 keV)
[7] = 5 h post i.v. injection, energy window A (60-120 keV)
[8] = 5 h post i.v. injection, energy window B (180-260 keV)
[9] = 5 h post i.v. injection, energy window C (400-480 keV)
[10] = C57BL/6 mice, i.v., 15 min to 5 h

O=C([O-])c1cccc(CN2CCOCCOCCN(Cc3cccc(C(=O)[O-])n3)CCOCCOCC2)n1.[225Ac+3] [[^225Ac(macropa)]^+]
Organ distribution: bladder [1]: 46.74 % ID/g | Organ distribution: blood [1]: 5.11 % ID/g | Organ distribution: bone (femur + joint) [1]: 2.52 % ID/g | Organ distribution: brain [1]: 0.26 % ID/g | Organ distribution: feces [1]: 0.91 % ID/g | Organ distribution: heart [1]: 2.19 % ID/g | Organ distribution: kidneys [1]: 27.55 % ID/g | Organ distribution: large intestines [1]: 2.40 % ID/g | Organ distribution: liver [1]: 2.28 % ID/g | Organ distribution: lungs [1]: 5.98 % ID/g | Organ distribution: pancreas [1]: 1.46 % ID/g | Organ distribution: small intestines [1]: 2.64 % ID/g | Organ distribution: spleen [1]: 2.52 % ID/g | Organ distribution: stomach [1]: 2.97 % ID/g | Organ distribution: tail [1]: 8.84 % ID/g | Organ distribution: thyroids [1]: 28.23 % ID/g | Organ distribution: urine [1]: 1378.82 % ID/g | Organ distribution: bladder [2]: 47.64 % ID/g | Organ distribution: blood [2]: 5.23 % ID/g | Organ distribution: bone (femur + joint) [2]: 2.69 % ID/g | Organ distribution: brain [2]: 0.23 % ID/g | Organ distribution: feces [2]: 1.04 % ID/g | Organ distribution: heart [2]: 2.39 % ID/g | Organ distribution: kidneys [2]: 27.86 % ID/g | Organ distribution: large intestines [2]: 2.53 % ID/g | Organ distribution: liver [2]: 2.17 % ID/g | Organ distribution: lungs [2]: 5.83 % ID/g | Organ distribution: pancreas [2]: 1.63 % ID/g | Organ distribution: small intestines [2]: 2.59 % ID/g | Organ distribution: spleen [2]: 2.55 % ID/g | Organ distribution: stomach [2]: 3.29 % ID/g | Organ distribution: tail [2]: 9.39 % ID/g | Organ distribution: thyroids [2]: −2.22 % ID/g | Organ distribution: urine [2]: 1541.60 % ID/g | Organ distribution: bladder [3]: 64.68 % ID/g | Organ distribution: blood [3]: 6.49 % ID/g | Organ distribution: bone (femur + joint) [3]: 3.74 % ID/g | Organ distribution: brain [3]: 0.17 % ID/g | Organ distribution: feces [3]: 1.26 % ID/g | Organ distribution: heart [3]: 2.87 % ID/g | Organ distribution: kidneys [3]: 33.46 % ID/g | Organ distribution: large intestines [3]: 3.02 % ID/g | Organ distribution: liver [3]: 2.72 % ID/g | Organ distribution: lungs [3]: 7.55 % ID/g | Organ distribution: pancreas [3]: 3.00 % ID/g | Organ distribution: small intestines [3]: 3.46 % ID/g | Organ distribution: spleen [3]: 3.79 % ID/g | Organ distribution: stomach [3]: 3.45 % ID/g | Organ distribution: tail [3]: 11.75 % ID/g | Organ distribution: thyroids [3]: −6.46 % ID/g | Organ distribution: urine [3]: 2387.66 % ID/g | Organ distribution: bladder [4]: 6.23 % ID/g | Organ distribution: blood [4]: 0.40 % ID/g | Organ distribution: bone (femur + joint) [4]: 0.31 % ID/g | Organ distribution: brain [4]: 0.12 % ID/g | Organ distribution: feces [4]: 0.28 % ID/g | Organ distribution: heart [4]: 0.31 % ID/g | Organ distribution: kidneys [4]: 13.36 % ID/g | Organ distribution: large intestines [4]: 0.36 % ID/g | Organ distribution: liver [4]: 0.75 % ID/g | Organ distribution: lungs [4]: 0.51 % ID/g | Organ distribution: pancreas [4]: 0.19 % ID/g | Organ distribution: small intestines [4]: 1.10 % ID/g | Organ distribution: spleen [4]: 0.51 % ID/g | Organ distribution: stomach [4]: 0.41 % ID/g | Organ distribution: tail [4]: 1.82 % ID/g | Organ distribution: thyroids [4]: 3.18 % ID/g | Organ distribution: urine [4]: 489.11 % ID/g | Organ distribution: bladder [5]: 5.92 % ID/g | Organ distribution: blood [5]: 0.39 % ID/g | Organ distribution: bone (femur + joint) [5]: 0.17 % ID/g | Organ distribution: brain [5]: 0.12 % ID/g | Organ distribution: feces [5]: 0.27 % ID/g | Organ distribution: heart [5]: 0.20 % ID/g | Organ distribution: kidneys [5]: 12.97 % ID/g | Organ distribution: large intestines [5]: 0.22 % ID/g | Organ distribution: liver [5]: 0.70 % ID/g | Organ distribution: lungs [5]: 0.54 % ID/g | Organ distribution: pancreas [5]: 0.12 % ID/g | Organ distribution: small intestines [5]: 0.94 % ID/g | Organ distribution: spleen [5]: 0.23 % ID/g | Organ distribution: stomach [5]: 0.33 % ID/g | Organ distribution: tail [5]: 1.82 % ID/g | Organ distribution: thyroids [5]: 0.10 % ID/g | Organ distribution: urine [5]: 517.19 % ID/g | Organ distribution: bladder [6]: 9.00 % ID/g | Organ distribution: blood [6]: 0.54 % ID/g | Organ distribution: bone (femur + joint) [6]: 0.70 % ID/g | Organ distribution: brain [6]: 0.23 % ID/g | Organ distribution: feces [6]: 0.69 % ID/g | Organ distribution: heart [6]: 0.23 % ID/g | Organ distribution: kidneys [6]: 17.38 % ID/g | Organ distribution: large intestines [6]: 0.79 % ID/g | Organ distribution: liver [6]: 1.08 % ID/g | Organ distribution: lungs [6]: 0.84 % ID/g | Organ distribution: pancreas [6]: 0.43 % ID/g | Organ distribution: small intestines [6]: 1.62 % ID/g | Organ distribution: spleen [6]: 0.48 % ID/g | Organ distribution: stomach [6]: 0.17 % ID/g | Organ distribution: tail [6]: 2.57 % ID/g | Organ distribution: thyroids [6]: 8.34 % ID/g | Organ distribution: urine [6]: 641.63 % ID/g | Organ distribution: bladder [7]: 4.25 % ID/g | Organ distribution: blood [7]: 0.01 % ID/g | Organ distribution: bone (femur + joint) [7]: 0.05 % ID/g | Organ distribution: brain [7]: 0.02 % ID/g | Organ distribution: feces [7]: 3.46 % ID/g | Organ distribution: heart [7]: 0.10 % ID/g | Organ distribution: kidneys [7]: 0.74 % ID/g | Organ distribution: large intestines [7]: 0.49 % ID/g | Organ distribution: liver [7]: 0.39 % ID/g | Organ distribution: lungs [7]: 0.01 % ID/g | Organ distribution: pancreas [7]: 0.10 % ID/g | Organ distribution: small intestines [7]: 0.29 % ID/g | Organ distribution: spleen [7]: 0.11 % ID/g | Organ distribution: stomach [7]: 0.01 % ID/g | Organ distribution: tail [7]: 0.14 % ID/g | Organ distribution: thyroids [7]: 0.10 % ID/g | Organ distribution: urine [7]: 12.78 % ID/g | Organ distribution: bladder [8]: 3.69 % ID/g | Organ distribution: blood [8]: 0.00 % ID/g | Organ distribution: bone (femur + joint) [8]: 0.02 % ID/g | Organ distribution: brain [8]: −0.01 % ID/g | Organ distribution: feces [8]: 3.49 % ID/g | Organ distribution: heart [8]: −0.04 % ID/g | Organ distribution: kidneys [8]: 0.78 % ID/g | Organ distribution: large intestines [8]: 0.45 % ID/g | Organ distribution: liver [8]: 0.36 % ID/g | Organ distribution: lungs [8]: −0.05 % ID/g | Organ distribution: pancreas [8]: −0.12 % ID/g | Organ distribution: small intestines [8]: 0.29 % ID/g | Organ distribution: spleen [8]: 0.09 % ID/g | Organ distribution: stomach [8]: 0.04 % ID/g | Organ distribution: tail [8]: 0.13 % ID/g | Organ distribution: thyroids [8]: −6.94 % ID/g | Organ distribution: urine [8]: 13.51 % ID/g | Organ distribution: bladder [9]: 8.52 % ID/g | Organ distribution: blood [9]: 0.04 % ID/g | Organ distribution: bone (femur + joint) [9]: 0.08 % ID/g | Organ distribution: brain [9]: −0.01 % ID/g | Organ distribution: feces [9]: 5.27 % ID/g | Organ distribution: heart [9]: 0.28 % ID/g | Organ distribution: kidneys [9]: 1.07 % ID/g | Organ distribution: large intestines [9]: 0.68 % ID/g | Organ distribution: liver [9]: 0.55 % ID/g | Organ distribution: lungs [9]: 0.15 % ID/g | Organ distribution: pancreas [9]: 0.13 % ID/g | Organ distribution: small intestines [9]: 0.42 % ID/g | Organ distribution: spleen [9]: 0.43 % ID/g | Organ distribution: stomach [9]: 0.13 % ID/g | Organ distribution: tail [9]: 0.28 % ID/g | Organ distribution: thyroids [9]: 19.89 % ID/g | Organ distribution: urine [9]: 22.27 % ID/g | blood clearance and excretion (in words) [10]: rapidly cleared from mice | organ accumulation (in words) [10]: did not accumulate in any organ
